Data reported in patent US20260250318A1, “COMPOSITIONS AND METHODS FOR CROSSING THE BLOOD BRAIN BARRIER” (VOYAGER THERAPEUTICS, INC., priority 2022, published 2026).

Assays:
[1] = test system: brains, heart, liver, muscle, and DRG of the NHPs; assay: Maturation of TTM-001 and TTM-002 capsids, NGS enrichment in NHP tissues; assay type: in vivo; conditions: relative to AAV9 control
Method in brief: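 Variants carry mutations within and flanking the loop IV peptide insert: positions 450–466 were triplet-randomized, while positions 449–466 received low-frequency point mutations. The combined pool went into two NHPs, and each peptide was scored by NGS enrichment ratio against AAV9.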

[2] = test system: brain; assay: Matured TTM-001 and TTM-002 variants, NGS enrichment in mouse brain; assay type: in vivo, mice; conditions: relative to AAV9 control
[3] = NGS fold-enrichment of RNA, NHP brain
[4] = NGS fold-enrichment, DRG of NHPs
[5] = NGS fold-enrichment, NHP liver DNA
[6] = NGS fold-enrichment, NHP liver RNA
[7] = NGS fold-enrichment, NHP muscle
[8] = NGS fold-enrichment, RNA, brain of NHPs
[9] = NGS fold-enrichment, heart of NHPs
[10] = NGS fold-enrichment, liver DNA of NHPs
[11] = NGS fold-enrichment, liver RNA of NHPs
[12] = NGS fold-enrichment, muscle of NHPs
[13] = NGS fold-enrichment, brain of mice
[14] = NGS fold-enrichment, mouse brain
[15] = NGS fold-enrichment of matured AAV capsid variants, NHP brain, RNA

## KNINGGGSPHSKAQNQQT
[1]; [3]
  Fold Enrichment relative to AAV9, Brain (NHP): 83.083 fold
[1]; [4]
  Fold Enrichment relative to AAV9, DRG (NHP): 0.000 fold
[1]; NGS fold-enrichment, NHP DRG
  Fold Enrichment relative to AAV9, DRG (NHP): 0.000 fold
[1]; NGS fold-enrichment, NHP heart
  Fold Enrichment relative to AAV9, Heart (NHP): 0.042 fold
[1]; [5]
  Fold Enrichment relative to AAV9, Liver DNA (NHP): 0.000 fold
[1]; [6]
  Fold Enrichment relative to AAV9, Liver RNA (NHP): 0.000 fold
[1]; [7]
  Fold Enrichment relative to AAV9, Muscle (NHP): 0.000 fold
[1]; [8]
  Fold Enrichment relative to AAV9, Brain (NHP): 83.083 fold
[1]; [9]
  Fold Enrichment relative to AAV9, Heart (NHP): 0.042 fold
[1]; [10]
  Fold Enrichment relative to AAV9, Liver DNA (NHP): 0.000 fold
[1]; [11]
  Fold Enrichment relative to AAV9, Liver RNA (NHP): 0.000 fold
[1]; [12]
  Fold Enrichment relative to AAV9, Muscle (NHP): 0.000 fold
[2]; [13]
  Fold Enrichment relative to AAV9, Brain (Mouse): 75.913 fold
[2]; [14]
  Fold Enrichment relative to AAV9, Brain (Mouse): 75.913 fold

## KNINGSGSPHSKAQNHQT
[1]; [15]
  Fold Enrichment relative to AAV9, Brain (NHP): 54.248 fold
[1]; NHP DRG
  Fold Enrichment relative to AAV9, DRG (NHP): 0.000 fold
[1]; NHP heart
  Fold Enrichment relative to AAV9, Heart (NHP): 0.034 fold
[1]; NHP liver, DNA
  Fold Enrichment relative to AAV9, Liver DNA (NHP): 0.075 fold
[1]; NHP liver, RNA
  Fold Enrichment relative to AAV9, Liver RNA (NHP): 0.340 fold
[1]; NHP muscle
  Fold Enrichment relative to AAV9, Muscle (NHP): 0.000 fold
[2]; mouse brain
  Fold Enrichment relative to AAV9, Brain (Mouse): 74.979 fold

## KNINGSGSPHSKAQNQQT (KNTNGSGSPHSKAQNQQT)
[1]; [4]
  Fold Enrichment relative to AAV9, DRG (NHP): 0.000 fold
[1]; [8]
  Fold Enrichment relative to AAV9, Brain (NHP): 78.445 fold
[1]; [9]
  Fold Enrichment relative to AAV9, Heart (NHP): 0.000 fold
[1]; [10]
  Fold Enrichment relative to AAV9, Liver DNA (NHP): 0.177 fold
[1]; [11]
  Fold Enrichment relative to AAV9, Liver RNA (NHP): 0.571 fold
[1]; [12]
  Fold Enrichment relative to AAV9, Muscle (NHP): 0.000 fold
[2]; [13]
  Fold Enrichment relative to AAV9, Brain (Mouse): 89.719 fold

## KNINGSGSPHSKAQSQQT
[1]; [4]
  Fold Enrichment relative to AAV9, DRG (NHP): 0.000 fold
[1]; [8]
  Fold Enrichment relative to AAV9, Brain (NHP): 73.757 fold
[1]; [9]
  Fold Enrichment relative to AAV9, Heart (NHP): 0.000 fold
[1]; [10]
  Fold Enrichment relative to AAV9, Liver DNA (NHP): 0.041 fold
[1]; [11]
  Fold Enrichment relative to AAV9, Liver RNA (NHP): 0.000 fold
[1]; [12]
  Fold Enrichment relative to AAV9, Muscle (NHP): 0.000 fold
[2]; [13]
  Fold Enrichment relative to AAV9, Brain (Mouse): 57.432 fold

## KNNLGSGSPHSKAQNQQT
[1]; [15]
  Fold Enrichment relative to AAV9, Brain (NHP): 50.670 fold
[1]; NHP DRG
  Fold Enrichment relative to AAV9, DRG (NHP): 0.000 fold
[1]; NHP heart
  Fold Enrichment relative to AAV9, Heart (NHP): 0.019 fold
[1]; NHP liver, DNA
  Fold Enrichment relative to AAV9, Liver DNA (NHP): 0.121 fold
[1]; NHP liver, RNA
  Fold Enrichment relative to AAV9, Liver RNA (NHP): 0.406 fold
[1]; NHP muscle
  Fold Enrichment relative to AAV9, Muscle (NHP): 0.000 fold
[2]; mouse brain
  Fold Enrichment relative to AAV9, Brain (Mouse): 102.408 fold

## KNSIGSGSPHSKAQNQQT
[1]; [15]
  Fold Enrichment relative to AAV9, Brain (NHP): 57.101 fold
[1]; NHP DRG
  Fold Enrichment relative to AAV9, DRG (NHP): 0.000 fold
[1]; NHP heart
  Fold Enrichment relative to AAV9, Heart (NHP): 0.052 fold
[1]; NHP liver, DNA
  Fold Enrichment relative to AAV9, Liver DNA (NHP): 0.074 fold
[1]; NHP liver, RNA
  Fold Enrichment relative to AAV9, Liver RNA (NHP): 0.083 fold
[1]; NHP muscle
  Fold Enrichment relative to AAV9, Muscle (NHP): 0.000 fold
[2]; mouse brain
  Fold Enrichment relative to AAV9, Brain (Mouse): 97.381 fold

## KNSLGSGSPHSKAQNQQT
[1]; [15]
  Fold Enrichment relative to AAV9, Brain (NHP): 56.621 fold
[1]; NHP DRG
  Fold Enrichment relative to AAV9, DRG (NHP): 0.000 fold
[1]; NHP heart
  Fold Enrichment relative to AAV9, Heart (NHP): 0.028 fold
[1]; NHP liver, DNA
  Fold Enrichment relative to AAV9, Liver DNA (NHP): 0.162 fold
[1]; NHP liver, RNA
  Fold Enrichment relative to AAV9, Liver RNA (NHP): 0.308 fold
[1]; NHP muscle
  Fold Enrichment relative to AAV9, Muscle (NHP): 0.000 fold
[2]; mouse brain
  Fold Enrichment relative to AAV9, Brain (Mouse): 101.942 fold

## KNTNGSGSPHSKAQNQQT
[1]; [3]
  Fold Enrichment relative to AAV9, Brain (NHP): 78.445 fold
[1]; NGS fold-enrichment, NHP DRG
  Fold Enrichment relative to AAV9, DRG (NHP): 0.000 fold
[1]; NGS fold-enrichment, NHP heart
  Fold Enrichment relative to AAV9, Heart (NHP): 0.000 fold
[1]; [5]
  Fold Enrichment relative to AAV9, Liver DNA (NHP): 0.177 fold
[1]; [6]
  Fold Enrichment relative to AAV9, Liver RNA (NHP): 0.571 fold
[1]; [7]
  Fold Enrichment relative to AAV9, Muscle (NHP): 0.000 fold
[2]; [14]
  Fold Enrichment relative to AAV9, Brain (Mouse): 89.719 fold

## KNVNGSGSPHSKAQNQQT
[1]; [15]
  Fold Enrichment relative to AAV9, Brain (NHP): 58.481 fold
[1]; NHP DRG
  Fold Enrichment relative to AAV9, DRG (NHP): 0.000 fold
[1]; NHP heart
  Fold Enrichment relative to AAV9, Heart (NHP): 0.000 fold
[1]; NHP liver, DNA
  Fold Enrichment relative to AAV9, Liver DNA (NHP): 0.166 fold
[1]; NHP liver, RNA
  Fold Enrichment relative to AAV9, Liver RNA (NHP): 0.917 fold
[1]; NHP muscle
  Fold Enrichment relative to AAV9, Muscle (NHP): 0.000 fold
[2]; mouse brain
  Fold Enrichment relative to AAV9, Brain (Mouse): 53.379 fold

## KNVVGHDSPHKSGQNQQT
[1]; [3]
  Fold Enrichment relative to AAV9, Brain (NHP): 75.330 fold
[1]; NGS fold-enrichment, NHP DRG
  Fold Enrichment relative to AAV9, DRG (NHP): 0.000 fold
[1]; NGS fold-enrichment, NHP heart
  Fold Enrichment relative to AAV9, Heart (NHP): 0.024 fold
[1]; [5]
  Fold Enrichment relative to AAV9, Liver DNA (NHP): 0.049 fold
[1]; [6]
  Fold Enrichment relative to AAV9, Liver RNA (NHP): 0.063 fold
[1]; [7]
  Fold Enrichment relative to AAV9, Muscle (NHP): 0.000 fold
[2]; [14]
  Fold Enrichment relative to AAV9, Brain (Mouse): 8.077 fold

## KQGEGSGSPHSKAQNQQT
[1]; [15]
  Fold Enrichment relative to AAV9, Brain (NHP): 58.752 fold
[1]; NHP DRG
  Fold Enrichment relative to AAV9, DRG (NHP): 0.000 fold
[1]; NHP heart
  Fold Enrichment relative to AAV9, Heart (NHP): 0.000 fold
[1]; NHP liver, DNA
  Fold Enrichment relative to AAV9, Liver DNA (NHP): 0.151 fold
[1]; NHP liver, RNA
  Fold Enrichment relative to AAV9, Liver RNA (NHP): 0.000 fold
[1]; NHP muscle
  Fold Enrichment relative to AAV9, Muscle (NHP): 0.000 fold
[2]; mouse brain
  Fold Enrichment relative to AAV9, Brain (Mouse): 135.300 fold
